The text below walks through data of ChEMBL document CHEMBL1126148, “Synthesis of halogenated trimetoquinol derivatives and evaluation of their beta-agonist and thromboxane A2 (TXA2) antagonist activities” (J Med Chem, 1992).

The target in assay [1] is T1, Beta-1 adrenergic receptor (Cavia porcellus, UniProt B0FL73). The experiment in a line: (§1) Inhibitory activity against Beta-1 adrenergic receptor in guinea pig atria after treatment with the compound.
Assay [2] deals with T2, Beta-2 adrenergic receptor (Cavia porcellus, UniProt Q8K4Z4). Nature of the assay: Agonist activity at Beta-2 adrenergic receptor in guinea pig trachea after treatment with the compound.
T2 sequence (Q8K4Z4 whole entry): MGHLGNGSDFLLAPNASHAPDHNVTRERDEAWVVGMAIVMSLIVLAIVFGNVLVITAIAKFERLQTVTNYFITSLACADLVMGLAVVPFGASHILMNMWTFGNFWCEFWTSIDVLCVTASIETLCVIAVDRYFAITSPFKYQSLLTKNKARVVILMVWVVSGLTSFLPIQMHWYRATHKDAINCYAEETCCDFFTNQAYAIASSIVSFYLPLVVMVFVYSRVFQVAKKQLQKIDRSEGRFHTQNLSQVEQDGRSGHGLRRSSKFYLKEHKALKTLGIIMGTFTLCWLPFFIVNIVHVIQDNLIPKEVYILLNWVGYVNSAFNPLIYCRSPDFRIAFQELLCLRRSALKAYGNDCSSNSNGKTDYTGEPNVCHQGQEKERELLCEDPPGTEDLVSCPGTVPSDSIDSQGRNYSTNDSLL
The next assay is filed under the species Homo sapiens. Nature of the assay: (§2) Potency ratio was measured as EC50 (trimetoquinol )/EC50 (drug). It counts as functional.
The species named for another assay is Rattus norvegicus. The description is as §2. It counts as functional.
In assay [3] the target is T3, Thromboxane A2 receptor (Rattus norvegicus) (UniProt P34978).
T3 sequence (whole entry): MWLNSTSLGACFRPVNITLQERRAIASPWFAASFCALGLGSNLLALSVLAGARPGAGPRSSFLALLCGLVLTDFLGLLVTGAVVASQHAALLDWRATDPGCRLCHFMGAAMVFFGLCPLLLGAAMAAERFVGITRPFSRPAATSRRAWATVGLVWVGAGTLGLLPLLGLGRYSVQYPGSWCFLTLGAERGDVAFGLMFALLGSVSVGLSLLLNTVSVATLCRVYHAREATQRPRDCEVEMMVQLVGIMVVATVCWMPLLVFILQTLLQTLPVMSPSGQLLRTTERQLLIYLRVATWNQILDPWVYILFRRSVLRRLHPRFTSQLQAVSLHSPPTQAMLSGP
Nature of the assay: (§3) Inhibitory activity against […]-mediated contraction of rat thoracic aorta (Thromboxane A2 tau receptor). It is filed as tissue-based.

The target of assay [4] is Beta-1 adrenergic receptor (Cavia porcellus) (UniProt B0FL73). The assay is described as §1.
Beta-1 adrenergic receptor (Cavia porcellus), sequence (B0FL73 1-467): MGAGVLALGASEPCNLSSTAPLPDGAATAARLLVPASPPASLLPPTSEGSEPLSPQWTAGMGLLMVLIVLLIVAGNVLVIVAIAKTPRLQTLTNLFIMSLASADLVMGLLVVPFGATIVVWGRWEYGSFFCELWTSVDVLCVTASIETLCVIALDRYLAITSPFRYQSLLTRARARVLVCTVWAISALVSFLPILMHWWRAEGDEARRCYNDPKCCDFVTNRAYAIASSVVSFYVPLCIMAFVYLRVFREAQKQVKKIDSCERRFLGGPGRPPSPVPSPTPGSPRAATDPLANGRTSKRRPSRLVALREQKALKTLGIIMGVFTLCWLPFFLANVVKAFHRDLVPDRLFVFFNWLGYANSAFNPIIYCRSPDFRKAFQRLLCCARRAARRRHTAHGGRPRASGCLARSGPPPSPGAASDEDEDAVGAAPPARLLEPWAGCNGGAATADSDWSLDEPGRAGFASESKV
Assay [5] has the same target. Nature of the assay: Maximum response of drug relative to the response of 10e-5 isoproterenol after treatment with the compound. It counts as functional.
Assay [6] concerns the target T3, Thromboxane A2 receptor (Rattus norvegicus). Described as §3. It counts as functional, tissue-based.
Assay [7] addresses T2, Beta-2 adrenergic receptor. Nature of the assay: Binding affinity against Beta-2 adrenergic receptor in guinea pig lung membranes. It counts as cell membranes, Membrane.
The target in assay [8] is T1, Beta-1 adrenergic receptor. Nature of the assay: Binding affinity against Beta-1 adrenergic receptor in guinea pig left ventricle.

T1 sequence (B0FL73 whole entry): as the sequence (B0FL73 1-467) above

Take `COc1cc(CC2NCCc3c(F)c(O)c(O)c(F)c32)cc(OC)c1OC` (configuration not stated): the results for the 50% effective concentration (EC50) in [1] and in assay [2] were 501 nM and 240 nM, respectively. Besides, the Potency ratio is 0.00277 in the assay filed under Homo sapiens and 0.00708 in the assay filed under Rattus norvegicus. In assay [3], this compound yielded a negative-log KB (pKB) of 3.98.
For `COc1cc(CC2NCCc3c2cc(O)c(O)c3C(F)(F)F)cc(OC)c1OC` (configuration not stated), the pKB in assay [4] is 5.32; in assay [3], 3.7. The Potency ratio worked out at 0.000525 in the assay filed under Homo sapiens and 0.00372 in the assay filed under Rattus norvegicus.
Regarding `COc1cc(CC2NCCc3c2cc(O)c(O)c3I)cc(OC)c1OC` (configuration not stated), the EC50 in assay [1] is more than 31600 nM; in assay [2], 2240 nM. Besides, in assay [5], the Intrinsic activity was 0.39. The results for the Potency ratio in the assay filed under Homo sapiens and in the assay filed under Rattus norvegicus were 0.002 and 0.07, respectively. In addition, in assay [3], the pKB came out at 4.31.
Regarding `COc1cc(CC2NCCc3cc(O)c(O)c(I)c32)cc(OC)c1OC` (configuration not stated), the EC50 in assay [1] is 2950 nM; in assay [2], 1170 nM. The compound further yielded an Intrinsic activity in assay [5] of 0.81. For the same compound, the Potency ratio in the assay filed under Homo sapiens amounted to 0.09; in the assay listed under Rattus norvegicus it was 0.24. In addition, the pKB in assay [3] came out at 4.84.
Take `COc1cc(C[C@@H]2NCCc3cc(O)c(O)cc32)cc(OC)c1OC` [TRETOQUINOL]: the EC50 in assay [1] was 174 nM; in [2], 26.3 nM. The compound also showed a pKB in [6] of 5.46. For the same compound, the Ki is 49 nM in [7] and 87.1 nM in [8].
For `COc1cc(C[C@H]2NCCc3cc(O)c(O)c(F)c32)cc(OC)c1OC`, the pKB in assay [6] came to 5.63.

For orientation: EC50 means the concentration needed to bring the measured effect to its halfway point. Low values mean greater potency, high ones weaker potency. What is called pKB is the KB on a negative log10 scale, so that one unit is a factor of ten. Low readings indicate a large KB, high ones a small KB. The term Ki denotes the dissociation constant of the complex between target and ligand, obtained from inhibition or displacement. A high value points to weaker binding.
